# Entries after “also recorded” stand apart in the source; their conditions may differ. Like-named read-outs stand apart in the source and are kept apart here.
# Key:
# [1] = tested on: U373; conditions: cited from earlier work
# [2] = tested on: T98G; conditions: cited from earlier work
# [3] = tested on: U87; conditions: cited from earlier work
# [4] = molecular target: T1, NHE1 (Homo sapiens, UniProt P19634); experiment: NHE1 inhibition: sodium-dependent pHi recovery in BCECF-loaded U87 glial cells after ammonium chloride pre-pulse; format: cell-based; set-up: Sodium-dependent proton extrusion in U87 glial cells and in primary astrocytes is mediated by the type 1 sodium proton exchanger (NHE1); endogenous in cells; host or cells: U87 human glioma cells
# T1 sequence (P19634 whole entry): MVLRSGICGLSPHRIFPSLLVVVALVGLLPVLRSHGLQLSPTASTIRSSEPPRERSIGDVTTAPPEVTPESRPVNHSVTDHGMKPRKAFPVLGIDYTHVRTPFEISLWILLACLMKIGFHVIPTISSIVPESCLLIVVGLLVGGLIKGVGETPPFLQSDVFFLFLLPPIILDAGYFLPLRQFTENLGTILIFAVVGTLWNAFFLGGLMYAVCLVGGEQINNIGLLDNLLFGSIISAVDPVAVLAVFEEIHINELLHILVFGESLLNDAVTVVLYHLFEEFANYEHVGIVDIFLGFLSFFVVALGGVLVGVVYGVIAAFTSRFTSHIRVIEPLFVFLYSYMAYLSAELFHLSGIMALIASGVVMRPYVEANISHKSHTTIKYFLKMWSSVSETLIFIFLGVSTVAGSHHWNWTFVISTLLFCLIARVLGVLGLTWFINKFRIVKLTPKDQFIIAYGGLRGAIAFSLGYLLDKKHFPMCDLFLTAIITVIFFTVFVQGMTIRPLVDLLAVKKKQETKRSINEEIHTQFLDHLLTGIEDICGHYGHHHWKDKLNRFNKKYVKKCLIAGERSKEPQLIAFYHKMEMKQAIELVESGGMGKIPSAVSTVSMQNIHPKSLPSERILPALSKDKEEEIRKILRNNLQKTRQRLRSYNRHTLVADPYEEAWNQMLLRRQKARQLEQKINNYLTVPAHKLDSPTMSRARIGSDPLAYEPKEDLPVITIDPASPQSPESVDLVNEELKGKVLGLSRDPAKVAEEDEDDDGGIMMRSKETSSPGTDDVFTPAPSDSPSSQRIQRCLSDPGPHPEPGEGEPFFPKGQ
# Procedure: Intracellular pH Measurements. U87 glial cells were grown on glass coverslips and incubated for 30 minutes at 37° C. with the pH-sensitive dye, 2′,7′-bis(2-carboxyethyl)-5(6)-carboxyfluorescein-AM (BCECF-AM; Molecular Probes, OR). Cells were rinsed with HEPES Ringer buffer twice and maintained at 37° C. for an additional 15 minutes to permit intracellular hydrolysis of the AM ester; trapping BCECF within the cells. Cells on coverslips were placed in a Hitachi F2000 fluorescent spectrophotometer and excited at 440 and 507 nm with fluorescent emissions recorded at 535 nm (Hegde et al., J. Pharmacol. Exp. Ther., 310:67-74 (2004)).
# NHE inhibition by compounds 3a and 3c was evaluated using intracellular pH (pHi) measurements in the U87 human glial cell line (Hegde et al., supra). Cells loaded with BCECF were then acidified using the ammonium chloride pre-pulse method (Roos et al., Physiol Rev, 61:296-434 (1981)). The subsequent sodium-dependent recovery of pHi by these cells in the absence of bicarbonate was monitored using a spectrofluorometer. Sodium-dependent proton extrusion in U87 glial cells and in primary astrocytes is mediated by the type 1 sodium proton exchanger (NHE1) (McLean et al., supra; Hegde et al., supra) and was monitored in the presence or absence of compound 3a or 3c.
# IC50 drug determinations for NHE1. This method utilizes spectrofluorometric measurements of [H^+]i as described above. The ammonium chloride prepulse method can be used to acidify cells in the presence of HR that is sodium-substituted with NMDG. Perfusion of the acidified cells with HR that contains sodium causes activation of NHE1 that is inhibited in a concentration-dependent fashion as described in McLean et al., supra.
# [5] = tested on: U87 glioma cells; conditions: Hegde et al. 2004; cited from earlier work
# [6] = molecular target: T1, NHE1; set-up: host or cells: CHO cell lines; conditions: CHO cell lines, published values; read-out: IC50 of cariporide (NHE); cited from earlier work
# [7] = tested on: U87 glioma cells
# [8] = tested on: T98G; conditions: cited from earlier work; remark: listed apart in the source
# [9] = tested on: U87; conditions: cited from earlier work; remark: listed apart in the source
# [10] = tested on: A172; conditions: cited from earlier work
# [11] = Neuropathological and neurobehavioral effects of intracerebral/intrathecal amiloride infusion in rats
# Procedure: Rats were subjected to a “probe” trial following the last acquisition trial in MWM assessment following tumor and drug administration. The hidden platform was removed and the rat was allowed to swim for 60 seconds. The duration of time spent in the “target” quadrant (formerly containing the platform) was recorded.
# [12] = molecular target: T2, NHE1 (Rattus norvegicus, UniProt P26431); conditions: read-out: IC50 of amiloride (NHE); primary rat astrocytes; cited from earlier work
# T2 construct: in primary rat astrocytes (6 μM) (McLean et al., supra); host or cells: primary rat astrocytes
# T2 sequence (P26431 whole entry): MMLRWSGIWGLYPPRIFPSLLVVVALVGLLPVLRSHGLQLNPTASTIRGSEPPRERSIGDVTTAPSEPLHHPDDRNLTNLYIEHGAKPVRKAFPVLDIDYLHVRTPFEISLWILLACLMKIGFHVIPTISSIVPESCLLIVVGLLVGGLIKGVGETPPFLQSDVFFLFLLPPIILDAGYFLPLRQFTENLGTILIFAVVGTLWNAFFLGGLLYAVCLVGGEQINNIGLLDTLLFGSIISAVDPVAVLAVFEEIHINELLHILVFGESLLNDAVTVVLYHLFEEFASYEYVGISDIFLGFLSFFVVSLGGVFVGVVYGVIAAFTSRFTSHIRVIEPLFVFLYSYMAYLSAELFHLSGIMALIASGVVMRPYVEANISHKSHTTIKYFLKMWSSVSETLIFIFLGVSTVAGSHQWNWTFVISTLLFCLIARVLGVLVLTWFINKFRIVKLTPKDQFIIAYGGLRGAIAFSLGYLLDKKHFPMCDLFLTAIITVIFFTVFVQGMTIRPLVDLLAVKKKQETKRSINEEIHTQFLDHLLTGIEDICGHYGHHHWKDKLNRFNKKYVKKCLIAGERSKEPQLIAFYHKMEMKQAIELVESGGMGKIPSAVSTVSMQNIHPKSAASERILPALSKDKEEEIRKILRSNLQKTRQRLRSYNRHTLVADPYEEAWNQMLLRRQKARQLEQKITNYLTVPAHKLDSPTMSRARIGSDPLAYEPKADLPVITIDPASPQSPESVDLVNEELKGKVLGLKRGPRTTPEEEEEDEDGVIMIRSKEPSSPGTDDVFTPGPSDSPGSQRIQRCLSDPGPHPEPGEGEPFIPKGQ
# [13] = tested on: NHE1 and NCX; conditions: NHE1 and NCX inhibitors from the literature; cited from earlier work
# [14] = tested on: intracerebral U87 glioma xenografts; experiment: Intracerebral U87 glioma xenografts in athymic rats, amiloride infusion by Alzet pump, tumor volume by NMR and histology; format: in vivo, rat; conditions: for Doubling time, day postimplant 10: before drug infusion (day 12-17); for Doubling time, day postimplant 12 / Doubling time, day postimplant 15 / Doubling time, day postimplant 17: drug infusion day 12-17
# Procedure: U87 glioma cells were stereotaxically implanted into the corpus striatum of brains of athymic (i.e., T-cell deficient) rats and characterized as an in vivo treatment model. Nissl-stained coronal sections were used to calculate tumor volumes from day 4 to day 28 post-implantation. T1-weighted NMR images were acquired from a separate set of animals to serially measure tumor volumes of intracerebral U87 glioma xenografts.
# BrdU was injected intraperitoneally 3 h prior to perfusion fixation with paraformaldehyde in deeply anesthetized animals.
# [15] = tested on: U87 cells; experiment: Intracellular translocation into U87 cells by fluorescence microscopy; conditions: 50 μM; 90 and 180 min; 380 nm excitation, 510 nm emission
# Text: Fluorescence Microscopy. […] Excitation light was provided by a xenon arc lamp coupled to the Polychrome IV scanning monochromator (Till Photonics; Grafelfing, Germany) that alternately excites with different wavelengths. Excitation light was delivered by fiber optics to cells through the epifluorescence port of a Nikon E600 microscope coupled to a Nikon Fluor 60× water immersion lens. The detector was an Orca II-ER CCD digital camera (Hamamatsu USA; Bridgewater, N.J.), which is controlled by C-Imaging Simple PCI software (Compix; Cranberry Township, Pa.).
# Intracellular emission intensities were collected in regions of interest (ROI) from an average of 4-8 cells/field using Simple PCI imaging software. […] Images were captured as TIFF files (C-imaging Simple PCI software), and light and fluorescent images of the same field were imported in Photoshop 6.0 and vector graphics added using Illustrator 9.0.1 (Adobe; San Jose, Calif.).
# [16] = tested on: U87 glioma cells; experiment: Glioma cell proliferation, manual cell counts with trypan blue; format: cell-based, human; conditions: glioma cells
# Procedure: C(5)-amiloride glycine conjugate (C5am-Gly) inhibits NHE1 in U87 glioma cells and is antiproliferative. […] The inhibitory activity of C5am-Gly against NCX was tested and a systematic log dose screen of C5am-Gly against a panel of glioma cells and primary astrocytes was performed.
# Manual cell counts with dye exclusion assays. Identical concentrations of glioma cells can be plated on 60 mm dishes and grown until 50% confluent. Following drug treatments, media containing floating cells can be collected in suspension. Adherent cells can be rinsed in calcium- and magnesium-free phosphate-buffered saline (PBS-CMF) and removed by incubation with 0.25% v/v trypsin for 5 minutes (37° C.). Cell suspensions can be combined with the floating fraction and centrifuged at 350×g for 5 minutes. The resulting pellet (one per dish) can be resuspended in equal volumes of PBS-CMF with 0.4% trypan blue and/or 500 nM Sytox Green. 10 μL aliquots of the suspension can be plated on a hemocytometer, and cells can be counted 5 minutes after staining. Simultaneous staining of cells with trypan (TB) and Sytox Green (SG) can be visualized by switching between visible light and fluorescein green.
# [17] = tested on: astrocytes; format: cell-based; conditions: amiloride ≧500 μM, 48-72 hours
# Text: Cell culture. The five human glioma cell lines can be obtained from the American Tissue Culture Collection (ATCC). Primary cultures of rat astrocytes can be isolated from the cerebral cortex of neonatal rats (0-1 day old). For measurements of [H^+]i, [Ca^2+]i, and [Na^+]i, cells can be grown on glass coverslips coated with rat tail collagen type I.
# [18] = tested on: NCX; conditions: read-out: IC50 for NCX inhibition; cited from earlier work
# [19] = tested on: U87 glioma cells; experiment: Glioma cell death, manual cell counts with trypan blue exclusion
# [20] = intrathecal infusion, tumor-implanted rats
# [21] = intracerebral amiloride infusion
structure (smiles),measurement,setting,value
Cn1nnc2c(C(N)=O)ncn2c1=O [Temozolamide],Temozolamide sensitivity,[1],yes
same,Temozolamide sensitivity,[2],no
same,Temozolamide sensitivity,[3],yes
CC(C)c1ccc(C(=O)NC(=N)N)cc1S(C)(=O)=O [Cariporide],Relative Potency,[4]; NHE inhibition relative to amiloride = 1,676
same,IC50,"[4]; U87 glial cells, read-out: IC50 of cariporide (NHE inhibition)",0.074 µM
same,Killing of glioma cells by selective NHE inhibitor,[5],do not kill glioma cells
same,IC50,[6],0.03 µM
same,Cytotoxicity to glioma cells,[7],cytotoxic
CN[C@@H]1C[C@H]2O[C@@](C)([C@@H]1OC)n1c3ccccc3c3c4c(c5c6ccccc6n2c5c31)C(=O)NC4 [staurosporine],G1 arrest with staurosporine,[8],yes
same,G1 arrest with staurosporine,[9],yes
same,G1 arrest with staurosporine,[10],yes
"NC(N)=NC(=O)c1nc(Cl)c(N)nc1N [Amiloride, 3,5-diamino-6-chloro-N-(diaminomethylene)pyrazinecarboxamide]",Reversal of NHE1 inhibition after removal of compound,[4]; U87 cells,slow and incomplete recovery; also recorded: prolonged and an incomplete recovery
same,Neuropathological changes in normal brain cell types,"[11]; Sprague-Dawley rats, 276 pmol/24 h intracerebral, 12 days",not observed; also recorded: no demonstrable neuropathology
same,Balance and fine motor coordination (beam walk),[11]; [20],did not affect
same,Memory in a spatial learning task (probe trial),[11]; [20],did not affect
same,IC50,[12],6 µM
same,Rel. Activity,[13],NHE > NCX
same,"Doubling time, day postimplant 10",[14]; 10 mM amiloride reservoir,3.07
same,"Doubling time, day postimplant 12",[14]; 10 mM amiloride reservoir,3.40
same,"Doubling time, day postimplant 15",[14]; 10 mM amiloride reservoir,3.99
same,"Doubling time, day postimplant 17",[14]; 10 mM amiloride reservoir,4.44
same,Effect on tumor growth rate,"[14]; 10 mM reservoir, 28 pmol/24 h, 0.14 nmol",did not affect
same,"Doubling time, day postimplant 10",[14]; 100 mM amiloride reservoir,1.23
same,"Doubling time, day postimplant 12",[14]; 100 mM amiloride reservoir,1.98
same,"Doubling time, day postimplant 15",[14]; 100 mM amiloride reservoir,4.58+
same,"Doubling time, day postimplant 17",[14]; 100 mM amiloride reservoir,11.65++
same,Increase of tumor doubling time compared to vehicle-treated animals,"[14]; 100 mM reservoir, 276 pmol/24 h for 5 days, 1.4 nmol total",3 fold
same,Effect on normal brain cell types (histology),[14]; [21],unaffected
same,Glioma cell death in poorly vascularized tumor regions (eosin staining),[14]; [21],necrotic glioma cell death
same,Effect on tumor growth rates,[14]; intracerebral infusion at relatively high doses vs vehicle,significantly slowed
same,Intracellular accumulation in U87 cells,[15],intracellular accumulation; also recorded: rapid cell permeation
same,Glioma Effect: antiproliferative concentration,[16],< 50 µM
same,Killing of astrocytes,[17],not astrocytes
same,IC50,[18],500 µM
same,Concentration that killed U87 glioma cells,"[19]; U87 glioma cells, C2am-Gly within 24 h",500 µM
same,Concentration that killed glioma cells,"[19]; glioma cells, amiloride within 48-72 hours",≥ 500 µM
same,Glioma Effect: cytotoxic concentration,[7],≥ 500 µM

# Reference: US7863415B2 (The Regents of the University of California, priority 2004, dated 2011)
